Columns and labels:
Type in all cases: in vivo
Setaria faberi (SETFA) [1] = assay: Post-emergence glasshouse herbicide test; settings: post-emergence (sprayed after 8 days cultivation), 1000 g/h, evaluated after 13 days, five point scale
Experimental: (§1) Seeds of a variety of test species are sown in standard soil in pots (Lolium perenne (LOLPE), Solanum nigrum (SOLNI), Amaranthus retoflexus (AMARE), Setaria faberi (SETFA), Echinochloa crus-galli (ECHCG), Ipomoea hederacea (IPOHE)). After cultivation for one day (pre-emergence) or after 8 days cultivation (post-emergence) under controlled conditions in a glasshouse (at 24/16° C., day/night; 14 hours light; 65% humidity), the plants are sprayed with an aqueous spray solution derived from the formulation of the technical active ingredient in acetone/water (50:50) solution containing 0.5% Tween 20 (polyoxyethelyene sorbitan monolaurate, CAS RN 9005-64-5). Compounds are applied at 1000 g/h. The test plants are then grown in a glasshouse under controlled conditions in a glasshouse (at 24/16° C., day/night; 14 hours light; 65% humidity) and watered twice daily. After 13 days for pre and post-emergence, the test is evaluated for the percentage damage caused to the plant. The biological activities are shown in the following table on a five point scale (5=80-100%; 4=60-79%; 3=40-59%; 2=20-39%; 1=0-19%).

Lolium perenne (LOLPE) [2] = assay: Post-emergence glasshouse herbicide test; settings: post-emergence (sprayed after 8 days cultivation), 1000 g/h, evaluated after 13 days, five point scale
Experimental: as §1

[3] = system: Ipomoea hederacea (IPOHE); assay: Post-emergence glasshouse herbicide test; settings: post-emergence (sprayed after 8 days cultivation), 1000 g/h, evaluated after 13 days, five point scale
Experimental: as §1

[4] = system: Amaranthus retoflexus (AMARE); assay: Post-emergence glasshouse herbicide test; settings: post-emergence (sprayed after 8 days cultivation), 1000 g/h, evaluated after 13 days, five point scale
Experimental: as §1

Solanum nigrum (SOLNI) [5] = assay: Post-emergence glasshouse herbicide test; settings: post-emergence (sprayed after 8 days cultivation), 1000 g/h, evaluated after 13 days, five point scale
Experimental: as §1

[6] = system: Echinochloa crus-galli (ECHCG); assay: Post-emergence glasshouse herbicide test; settings: post-emergence (sprayed after 8 days cultivation), 1000 g/h, evaluated after 13 days, five point scale
Experimental: as §1

Setaria faberi (SETFA) [7] = assay: Pre-emergence glasshouse herbicide test; settings: pre-emergence (sprayed after one day cultivation), 1000 g/h, evaluated after 13 days, five point scale
Experimental: as §1

Lolium perenne (LOLPE) [8] = assay: Pre-emergence glasshouse herbicide test; settings: pre-emergence (sprayed after one day cultivation), 1000 g/h, evaluated after 13 days, five point scale
Experimental: as §1

[9] = system: Ipomoea hederacea (IPOHE); assay: Pre-emergence glasshouse herbicide test; settings: pre-emergence (sprayed after one day cultivation), 1000 g/h, evaluated after 13 days, five point scale
Experimental: as §1

[10] = system: Amaranthus retoflexus (AMARE); assay: Pre-emergence glasshouse herbicide test; settings: pre-emergence (sprayed after one day cultivation), 1000 g/h, evaluated after 13 days, five point scale
Experimental: as §1

Solanum nigrum (SOLNI) [11] = assay: Pre-emergence glasshouse herbicide test; settings: pre-emergence (sprayed after one day cultivation), 1000 g/h, evaluated after 13 days, five point scale
Experimental: as §1

[12] = system: Echinochloa crus-galli (ECHCG); assay: Pre-emergence glasshouse herbicide test; settings: pre-emergence (sprayed after one day cultivation), 1000 g/h, evaluated after 13 days, five point scale
Experimental: as §1

| SMILES | percentage damage caused to the plant, SETFA, POST Application (Setaria faberi (SETFA) [1]) | percentage damage caused to the plant, LOLPE, POST Application (Lolium perenne (LOLPE) [2]) | percentage damage caused to the plant, IPOHE, POST Application [3] | percentage damage caused to the plant, AMARE, POST Application [4] | percentage damage caused to the plant, SOLNI, POST Application (Solanum nigrum (SOLNI) [5]) | percentage damage caused to the plant, ECHCG, POST Application [6] | percentage damage caused to the plant, SETFA, PRE Application (Setaria faberi (SETFA) [7]) | percentage damage caused to the plant, LOLPE, PRE Application (Lolium perenne (LOLPE) [8]) | percentage damage caused to the plant, IPOHE, PRE Application [9] | percentage damage caused to the plant, AMARE, PRE Application [10] | percentage damage caused to the plant, SOLNI, PRE Application (Solanum nigrum (SOLNI) [11]) | percentage damage caused to the plant, ECHCG, PRE Application [12] |
| --- | --- | --- | --- | --- | --- | --- | --- | --- | --- | --- | --- | --- |
| CCCCNc1c(C(=O)Nc2nnnn2C)nn(C)c(=O)c1C [Compound 1.008] | 1 (1=0-19%) | 1 (1=0-19%) | 2 (2=20-39%) | 5 (5=80-100%) | 5 (5=80-100%) | 1 (1=0-19%) | 1 (1=0-19%) | 1 (1=0-19%) | 2 (2=20-39%) | 4 (4=60-79%) | 2 (2=20-39%) | 1 (1=0-19%) |
| Cn1nnnc1NC(=O)c1nn(C)c(=O)c(-c2cccc(Cl)c2)c1Cl [Compound 1.012] | 4 (4=60-79%) | 5 (5=80-100%) | 3 (3=40-59%) | 5 (5=80-100%) | 5 (5=80-100%) | 5 (5=80-100%) | 5 (5=80-100%) | 5 (5=80-100%) | 4 (4=60-79%) | 5 (5=80-100%) | 5 (5=80-100%) | 5 (5=80-100%) |
| COc1ccc(-c2c(Cl)c(C(=O)Nc3nnnn3C)nn(C)c2=O)cc1 [Compound 1.016] | 5 (5=80-100%) | 5 (5=80-100%) | 4 (4=60-79%) | 5 (5=80-100%) | 5 (5=80-100%) | 5 (5=80-100%) | 5 (5=80-100%) | 5 (5=80-100%) | 1 (1=0-19%) | 5 (5=80-100%) | 5 (5=80-100%) | 5 (5=80-100%) |
| Cc1ccc(-c2c(Cl)c(C(=O)Nc3nnnn3C)nn(C)c2=O)cc1 [Compound 1.015] | 5 (5=80-100%) | 5 (5=80-100%) | 3 (3=40-59%) | 5 (5=80-100%) | 5 (5=80-100%) | 5 (5=80-100%) | 5 (5=80-100%) | 5 (5=80-100%) | 2 (2=20-39%) | 5 (5=80-100%) | 5 (5=80-100%) | 5 (5=80-100%) |

Source: patent US9701662B2, “Herbicidal compounds” (Syngenta Participations AG, priority 2014, dated 2017)
